Measurements: patent US20110105430A1, “PYRROLO [2,3-C] PYRIDINE DERIVATIVES AS P38 KINEASE INHIBITING AGENTS” (priority 2008, published 2011)

How the values were obtained:
[1] = system: TNF-α; assay: IC50 hWB (TNF-α release assay); assay type: cell-based; details: Homo sapiens
Protocol: Blood was obtained from healthy volunteers by venipuncture using sodium heparin as an anti-coagulant. Peripheral blood mononuclear cells (PBMCs) were isolated using Lymphocyte Separation Medium (ICN) according to manufacturers specifications. Isolated PBMCs were washed 3 times with FIBSS and diluted to a density of 2×10^6 cells/mL in RPMI+5% autologous human serum. 50 μL of the serial dilutions of inhibitor were added to wells of a 96-well tissue culture plate followed by addition of 100 μL of PBMCs and then 50 μL of RPMI complete medium containing 400 ng/mL LPS. A control well of cells without compound but with LPS (maximal stimulation control) and one without compound and without LPS (background control) were included in each titration. The cells were incubated for 16 hours in a humidified incubator at 37° C., 5% CO2. Supernatants were then harvested and TNF-α levels were quantified by immunoassay using commercial reagents (R&D, Inc).

[2] = molecular target: T1, p38α (Homo sapiens, UniProt Q16539); assay: p38 kinase assay, p38-α with peptide substrate (Caliper LabChip); assay type: biochemical
T1 construct: purchased Millipore
T1 sequence (Q16539 whole entry): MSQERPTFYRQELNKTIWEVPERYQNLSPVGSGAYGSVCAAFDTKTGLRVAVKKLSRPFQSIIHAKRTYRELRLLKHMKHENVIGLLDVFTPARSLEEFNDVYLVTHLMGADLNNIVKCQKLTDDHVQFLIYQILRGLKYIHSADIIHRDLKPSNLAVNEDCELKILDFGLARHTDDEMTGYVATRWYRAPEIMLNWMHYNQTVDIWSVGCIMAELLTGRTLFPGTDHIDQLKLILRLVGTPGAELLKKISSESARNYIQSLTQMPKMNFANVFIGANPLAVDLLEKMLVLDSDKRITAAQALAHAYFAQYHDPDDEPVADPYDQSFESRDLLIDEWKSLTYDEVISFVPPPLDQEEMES
Protocol: Alternatively, p38 kinase assays were performed in a reaction volume of 70 μL in a 384-well plate, at 30° for […] under the following conditions: 50 mM Hepes, pH 7.4, 10 mM MgCl2, 1 mg/ml FA Free BSA, 1 mM DTT, 10 μM ATP, 10 μM p38 peptide [Caliper Life Sciences FL-Peptide 8 (5-FAM-IPTSPITTTYFFFKKK-COOH)] and 5.7 nM p38-α (Millipore), or 14.3 nM unactivated MAPKAP kinase-2, 0.18 nM p38-α (Millipore) and 2 uM RSK peptide [Caliper Life Sciences FL-Peptide 11 (5-FAM-KKLNRTLSVA-COOH)]. Serial dilutions of compounds were added to each reaction in 700 nL DMSO. 700 nL of DMSO was added to the control wells of the reaction plate as the no inhibitor control for each inhibitor titration. The reaction was terminated by the addition of 15 μL of a 100 mM EDTA. Product formation was analyzed using the Caliper LabChip 3000. The Separation buffer contained 100 mM HEPES pH 7.5, 0.015% Brij-35, 2.5% Coating Reagent #3 (Caliper Life Sciences) and 10 mM EDTA. Calculation of the substrate product ratios are performed using the HTS Well Analyzer software provided by Caliper Life Sciences and the percent inhibition at each compound concentration is determined.

O=C(c1c(F)cncc1F)c1c[nH]c2c(=O)n(Cc3cc4ccccn4n3)ccc12 [Example 13, 3-(3,5-difluoroisonicotinoyl)-6-(pyrazolo[1,5-c]pyridin-2-ylmethyl)-1,6-dihydro-7H-pyrrolo[2,3-c]pyridin-7-one]
IC50 [1]: 1520 nM
IC50 [2]: 29 nM

O=C(c1c(F)cc(F)cc1F)c1c[nH]c2c(=O)n(Cc3cn4ccc(C(F)(F)F)cc4n3)ccc12 [Example 18, 3-(2,4,6-trifluorobenzoyl)-6-{[(7-trifluoromethyl)imidazo[1,2-c]pyridin-2-yl]methyl}-1,6-dihydro-7H-pyrrolo[2,3-c]pyridin-7-one]
IC50 [1]: 201 nM
IC50 [2]: 12 nM
